Test results as given in patent US20240041386A1, “MICROCHIP BASED RECORDING OF NEUROVASCULAR ACTIVITY AND BEHAVIOR” (NEUREFLECT, INC., priority 2021, published 2024).

Tested on: cortical spreading depression (CSD)
Experiment: Optically triggered cortical spreading depression (CSD) threshold in mice with skull-attached microchip
Assay type: in vivo
Conditions: Thy1/ChR2 mice under isoflurane anesthesia, compared with the wake state; data not shown
Procedure: Cortical spreading depression (CSD) in freely behaving mice was triggered optically by administering sequential pulses of light with increasing duration until CSD was observed based on OIS. After each light pulse, OIS was monitored for at least 10 minutes for the occurrence of CSD. If CSD occurred, no further stimulus pulses were delivered, whereas if no CSD occurred, then the duration was increased with the subsequent pulse. To trigger CSD under anesthesia, the cage that the animal was housed in was rapidly flushed with 2% isoflurane in a 20/80% O2/N2 gas mixture. After the animal lost consciousness, the isoflurane was reduced to 1.5% to sustain anesthesia. For prolonged experiments a heating pad set at 37° C. was placed under the cage and a small paper blanket was placed over the animal to maintain its core temperature. Breathing pattern and paw color were continuously monitored. Anesthesia was maintained until CBV returned to baseline levels at the end of the CSD. […] After each light pulse, OIS was monitored for a t least 10 minutes for a CSD, If CSD occurred, no further pulses were delivered. If a baseline threshold was well determined, stimulations were started 3-4 steps before that baseline for subsequent CSDs. […] These measurements illustrate that threshold for optically triggering CSD can be quantified based upon the duration of light stimulation required to evoke CSD. […]

FC(F)OC(Cl)C(F)(F)F (stereo not shown) [isoflurane]
threshold for triggering CSD (duration of blue light stimulation required to evoke CSD): significantly lower than in the wake state
